Assay results taken from US7196192B2, “28-epirapalogs” (Ariad Gene Therapeutics, Inc., priority 1999, dated 2007).
Where two headings read alike, the source gives them in different places.

How the values were obtained:
FKBP = FKBP (Homo sapiens, UniProt P62942); assay: FKBP competitive binding assay based on fluorescence polarization (FP); settings: competitive FP binding, methods of Example 2.5
Procedure: A Competitive Binding FP Assay is described in detail in WO99/36553 and WO96/41865. That assay permits the in vitro measurement of an IC50 value for a given compound which reflects its ability to bind to an FKBP-protein in competition with a labeled FKBP ligand, such as, for example, FK506.
(§1) A diverse group of C7-modified 28-epirapalogs were prepared as described in Example 4.

[1] = molecular target: T1, transcriptional switch components containing FKBP and 2098L mutant FRB domains (Homo sapiens, UniProt P42345+P62942); assay: transcription assay in engineered HD1080 cells expressing SEAP (txn 2098L); type: cell-based
T1 construct: transcriptional switchcomponents containing FKBP and 2098L mutant FRB domains, respectively; fused on or other part: The two switch components are separate chimeric proteins; Neither is given for this cell line
T1 sequence (P62942 2-108 limits assumed, stated change not applied, other chains not shown): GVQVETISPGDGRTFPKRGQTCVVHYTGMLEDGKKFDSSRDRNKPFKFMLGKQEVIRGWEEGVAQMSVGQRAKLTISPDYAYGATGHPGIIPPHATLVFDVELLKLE
Description: The ability of the rapalogs to multimerize chimeric proteins may be measured in cell-based assays by measuring the occurrence of an event triggered by such multimerization. For instance, one may use cells containing and capable of expressing DNA encoding a first chimeric protein comprising one or more FKBP-domains and one or more effector domains as well as DNA encoding a second chimeric protein containing an FRB domain and one or more effector domains capable, upon multimerization, of actuating a biological response. We prefer to use cells which further contain a reporter gene under the transcriptional control of a regulatory element (i.e., promoter) which is responsive to the multimerization of the chimeric proteins. The design and preparation of illustrative components and their use in so engineered cells is described in WO99/36553 and WO96/41865 and the other international patent applications referred to in this and the foregoing section. (See also W099/10510 for additional guidance on the design, assembly and delivery of nucleic acids to render cells and animals responsive to rapalogs of interest and for additional guidance on applications of such systems.) The cells are grown or maintained in culture. A rapalog is added to the culture medium and after a suitable incubation period (to permit gene expression and secretion, e.g. several hours or overnight) the presence of the reporter gene product is measured. Positive results, i.e., multimerization, correlates with transcription of the reporter gene as observed by the appearance of the reporter gene product. The reporter gene product may be a conveniently detectable protein (e.g. by ELISA) or may catalyze the production of a conveniently detectable product (e.g. colored). Materials and methods for producing appropriate cell lines for conducting such assays are disclosed in the international patent applications cited above in this section.
2. EC50 values of the various compounds was measured in a transcription assay using genetically engineered HD1080 cells which constitutively express transcriptional switch components containing FKBP and 2098L mutant FRB domains, respectively and which regulatably express secreted alkaline phosphatase (SEAP) in the presence of a compound which multimerizes the switch components. The assay is a literature assay. See WO 99/36553, e.g. Example 12, pages 120–121 (& FIG. 2D) […]

murine splenocyte = murine splenocyte assay for immunosuppressive activity; type: cell-based; settings: mouse splenocyte assay, methods of Example 2.5, read-out: Splenocyte IC50
Procedure: 3. Conventional murine splenocyte assay for immunosuppressive activity.
as §1

[2] = cellular transcription assay, methods of Example 2.5; read-out: TXN 2098L EC50
[3] = read-out: TXN 2098L EC50; cellular transcription assay, methods of Example 2.5

Sequence of FKBP (P62942 whole entry): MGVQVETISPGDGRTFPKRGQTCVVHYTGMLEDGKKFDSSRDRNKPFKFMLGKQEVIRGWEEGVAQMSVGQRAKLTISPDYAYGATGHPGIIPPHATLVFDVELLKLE

CCCS(=O)(=O)N(C)C1CC2CCC(C)C(O)(O2)C(=O)C(=O)N2CCCCC2C(=O)OC(C(C)CC2CCC(O)C(OC)C2)CC(=O)C(C)C=C(C)C(O)C(OC)C(=O)C(C)CC(C)C=CC=CC=C1C (single isomer, unassigned) [28-epi-7S-N-Me-propanesulfonamide]
IC50 (FKBP; read-out: FKBP IC50): 19 nM
EC50 [1, 2]: 35 nM
TXN 2098L peak relative to rapamycin peak ([1]; superscript mark on EC50 cell): (+) (peak was >125% rapamycin peak)
IC50 (murine splenocyte; Mus musculus, Splenocyte): 2630 nM

CCOC(=O)N(C)C1CC2CCC(C)C(O)(O2)C(=O)C(=O)N2CCCCC2C(=O)OC(C(C)CC2CCC(O)C(OC)C2)CC(=O)C(C)C=C(C)C(O)C(OC)C(=O)C(C)CC(C)C=CC=CC=C1C (single isomer, unassigned) [28-epi-7S-N-methyl-ethylcarbamate]
IC50 (FKBP; read-out: FKBP IC50): 30 nM
EC50 [1, 2]: 12 nM
TXN 2098L peak relative to rapamycin peak ([1]; superscript mark on EC50 cell): (−) (peak was <80% rapamycin peak)
IC50 (murine splenocyte): 2290 nM

COC1CC(CC(C)C2CC(=O)C(C)C=C(C)C(O)C(OC)C(=O)C(C)CC(C)C=CC=CC=C(C)C(OCc3ccccc3)CC3CCC(C)C(O)(O3)C(=O)C(=O)N3CCCCC3C(=O)O2)CCC1O (single isomer, unassigned) [28-epi-7S-benzyloxy]
IC50 (FKBP; read-out: FKBP IC50): 70 nM
EC50 [1, 2]: 18 nM
IC50 (murine splenocyte): 93 nM

CCN([C@@H]1C[C@@H]2CC[C@@H](C)[C@@](O)(O2)C(=O)C(=O)N2CCCC[C@H]2C(=O)O[C@H]([C@H](C)C[C@@H]2CC[C@@H](O)[C@H](OC)C2)CC(=O)[C@H](C)/C=C(\C)[C@H](O)[C@@H](OC)C(=O)[C@H](C)C[C@H](C)/C=C/C=C/C=C/1C)S(C)(=O)=O [28-epi-7R-N-Et-methanesulfonamide]
IC50 (FKBP; FKBP IC50 (nM)): 31 nM
EC50 [1, 3]: 8 nM
TXN 2098L peak relative to rapamycin peak ([1]; superscript mark on EC50 cell): (+) (peak was >125% rapamycin peak)
IC50 (murine splenocyte; Mus musculus, Splenocyte): 189 nM

CO[C@@H]1C[C@H](C[C@@H](C)[C@@H]2CC(=O)[C@H](C)/C=C(\C)[C@H](O)[C@@H](OC)C(=O)[C@H](C)C[C@H](C)/C=C/C=C/C=C(\C)[C@H](N(C)C(=O)OCc3ccccc3)C[C@@H]3CC[C@@H](C)[C@@](O)(O3)C(=O)C(=O)N3CCCC[C@H]3C(=O)O2)CC[C@H]1O [28-epi-7R-N-Me-benzylcarbamate]
IC50 (FKBP; read-out: FKBP IC50): 163 nM
EC50 [1, 2]: 8 nM
TXN 2098L peak relative to rapamycin peak ([1]; superscript mark on EC50 cell): (−) (peak was <80% rapamycin peak)
IC50 (murine splenocyte; Mus musculus, Splenocyte): 1150 nM

CO[C@@H]1C[C@H](C[C@@H](C)[C@@H]2CC(=O)[C@H](C)/C=C(\C)[C@H](O)[C@@H](OC)C(=O)[C@H](C)C[C@H](C)/C=C/C=C/C=C(\C)[C@H](N(C)S(C)(=O)=O)C[C@@H]3CC[C@@H](C)[C@@](O)(O3)C(=O)C(=O)N3CCCC[C@H]3C(=O)O2)CC[C@H]1O [28-epi-7R-N-Me-methanesulfonamide]
IC50 (FKBP; read-out: FKBP IC50): 37 nM
EC50 [1, 2]: 8 nM
IC50 (murine splenocyte; Mus musculus, Splenocyte): 166 nM

CO[C@@H]1C[C@H](C[C@@H](C)[C@@H]2CC(=O)[C@H](C)/C=C(\C)[C@H](O)[C@@H](OC)C(=O)[C@H](C)C[C@H](C)/C=C/C=C/C=C(\C)[C@H](N(C)S(=O)(=O)c3ccc(C)cc3)C[C@@H]3CC[C@@H](C)[C@@](O)(O3)C(=O)C(=O)N3CCCC[C@H]3C(=O)O2)CC[C@H]1O [28-epi-7R-N-Me-p-toluenesulfonamide]
IC50 (FKBP; FKBP IC50 (nM)): 34 nM
EC50 [1, 3]: 8 nM
IC50 (murine splenocyte; Mus musculus, Splenocyte): 12 nM

CO[C@@H]1C[C@H](C[C@@H](C)[C@@H]2CC(=O)[C@H](C)/C=C(\C)[C@H](O)[C@@H](OC)C(=O)[C@H](C)C[C@H](C)/C=C/C=C/C=C(\C)[C@H](N(C)C(=O)Oc3ccc(C)cc3)C[C@@H]3CC[C@@H](C)[C@@](O)(O3)C(=O)C(=O)N3CCCC[C@H]3C(=O)O2)CC[C@H]1O [28-epi-7R-N-Me-p-tolylcarbamate]
IC50 (FKBP; read-out: FKBP IC50): 119 nM
EC50 [1, 2]: 70 nM
IC50 (murine splenocyte): 393 nM

C=CCO[C@@H]1C[C@@H]2CC[C@@H](C)[C@@](O)(O2)C(=O)C(=O)N2CCCC[C@H]2C(=O)O[C@H]([C@H](C)C[C@@H]2CC[C@@H](O)[C@H](OC)C2)CC(=O)[C@H](C)/C=C(\C)[C@H](O)[C@@H](OC)C(=O)[C@H](C)C[C@H](C)/C=C/C=C/C=C/1C [28-epi-7R-allyloxy]
IC50 (FKBP; FKBP IC50 (nM)): 11 nM
EC50 [1, 3]: 25 nM
IC50 (murine splenocyte; Mus musculus, Splenocyte): 3400 nM

COC1CC(CC(C)C2CC(=O)C(C)C=C(C)C(O)C(OC)C(=O)C(C)CC(C)C=CC=CC=C(C)C(NC(=O)OCc3ccccc3)CC3CCC(C)C(O)(O3)C(=O)C(=O)N3CCCCC3C(=O)O2)CCC1O (stereo not drawn) [28-epi-7R-benzylcarbamate]
IC50 (FKBP; read-out: FKBP IC50): 12 nM
EC50 [1, 2]: 9 nM
TXN 2098L peak relative to rapamycin peak ([1]; superscript mark on EC50 cell): (+) (peak was >125% rapamycin peak)
IC50 (murine splenocyte): 2260 nM

CCCCS(=O)(=O)N[C@@H]1C[C@@H]2CC[C@@H](C)[C@@](O)(O2)C(=O)C(=O)N2CCCC[C@H]2C(=O)O[C@H]([C@H](C)C[C@@H]2CC[C@@H](O)[C@H](OC)C2)CC(=O)[C@H](C)/C=C(\C)[C@H](O)[C@@H](OC)C(=O)[C@H](C)C[C@H](C)/C=C/C=C/C=C/1C [28-epi-7R-butanesulfonamide]
IC50 (FKBP; read-out: FKBP IC50): 11 nM
EC50 [1, 2]: 20 nM
IC50 (murine splenocyte; Mus musculus, Splenocyte): 0.16 nM

COc1ccc(C2CC3CCC(C)C(O)(O3)C(=O)C(=O)N3CCCCC3C(=O)OC(C(C)CC3CCC(O)C(OC)C3)CC(=O)C(C)C=C(C)C(O)C(OC)C(=O)C(C)CC(C)C=CC=CC=C2C)c(OC)c1 (stereo not drawn) [28-epi-7R-dimethoxyphenyl]
IC50 (FKBP; read-out: FKBP IC50): 54 nM
EC50 [1, 2]: 26 nM
IC50 (murine splenocyte): 22 to 28 nM

COC1CC(CC(C)C2CC(=O)C(C)C=C(C)C(O)C(OC)C(=O)C(C)CC(C)C=CC=CC=C(C)C(NS(=O)(=O)N(C)C)CC3CCC(C)C(O)(O3)C(=O)C(=O)N3CCCCC3C(=O)O2)CCC1O (stereo not drawn) [28-epi-7R-dimethylsulfamide]
IC50 (FKBP; read-out: FKBP IC50): 29 nM
EC50 [1, 2]: 20 nM
TXN 2098L peak relative to rapamycin peak ([1]; superscript mark on EC50 cell): (+) (peak was >125% rapamycin peak)
IC50 (murine splenocyte): 1840 nM

CCOC(=O)N[C@@H]1C[C@@H]2CC[C@@H](C)[C@@](O)(O2)C(=O)C(=O)N2CCCC[C@H]2C(=O)O[C@H]([C@H](C)C[C@@H]2CC[C@@H](O)[C@H](OC)C2)CC(=O)[C@H](C)/C=C(\C)[C@H](O)[C@@H](OC)C(=O)[C@H](C)C[C@H](C)/C=C/C=C/C=C/1C [28-epi-7R-ethylcarbamate]
IC50 (FKBP; FKBP IC50 (nM)): 7.5 nM
EC50 [1, 3]: 9 nM
TXN 2098L peak relative to rapamycin peak ([1]; superscript mark on EC50 cell): (+) (peak was >125% rapamycin peak)
IC50 (murine splenocyte; Mus musculus, Splenocyte): > 5000 nM

CO[C@@H]1C[C@H](C[C@@H](C)[C@@H]2CC(=O)[C@H](C)/C=C(\C)[C@H](O)[C@@H](OC)C(=O)[C@H](C)C[C@H](C)/C=C/C=C/C=C(\C)[C@H](NS(C)(=O)=O)C[C@@H]3CC[C@@H](C)[C@@](O)(O3)C(=O)C(=O)N3CCCC[C@H]3C(=O)O2)CC[C@H]1O [28-epi-7R-methanesulfonamide]
IC50 (FKBP; read-out: FKBP IC50): 7.2 nM
EC50 [1, 2]: 24 nM
IC50 (murine splenocyte; Mus musculus, Splenocyte): 91 nM

CO[C@@H]1C[C@H](C[C@@H](C)[C@@H]2CC(=O)[C@H](C)/C=C(\C)[C@H](O)[C@@H](OC)C(=O)[C@H](C)C[C@H](C)/C=C/C=C/C=C(\C)[C@H](NS(=O)(=O)N(C)c3ccccc3)C[C@@H]3CC[C@@H](C)[C@@](O)(O3)C(=O)C(=O)N3CCCC[C@H]3C(=O)O2)CC[C@H]1O [28-epi-7R-methylphenylsulfamide]
IC50 (FKBP; read-out: FKBP IC50): 38 nM
EC50 [1, 2]: 27 nM
IC50 (murine splenocyte): 22 nM

COC1CC(CC(C)C2CC(=O)C(C)C=C(C)C(O)C(OC)C(=O)C(C)CC(C)C=CC=CC=C(C)C(c3ccc(C)s3)CC3CCC(C)C(O)(O3)C(=O)C(=O)N3CCCCC3C(=O)O2)CCC1O (stereo not drawn) [28-epi-7R-methylthiophene]
IC50 (FKBP; read-out: FKBP IC50): 120 nM
EC50 [1, 2]: 22 nM
IC50 (murine splenocyte): 394 to 424 nM

COC1CC(CC(C)C2CC(=O)C(C)C=C(C)C(O)C(OC)C(=O)C(C)CC(C)C=CC=CC=C(C)C(NC(=O)Oc3ccccc3)CC3CCC(C)C(O)(O3)C(=O)C(=O)N3CCCCC3C(=O)O2)CCC1O (stereo not drawn) [28-epi-7R-phenylcarbamate]
IC50 (FKBP; read-out: FKBP IC50): 9 nM
EC50 [1, 2]: 10 nM
TXN 2098L peak relative to rapamycin peak ([1]; superscript mark on EC50 cell): (+) (peak was >125% rapamycin peak)
IC50 (murine splenocyte): > 5000 nM

CO[C@@H]1C[C@H](C[C@@H](C)[C@@H]2CC(=O)[C@H](C)/C=C(\C)[C@H](O)[C@@H](OC)C(=O)[C@H](C)C[C@H](C)/C=C/C=C/C=C(\C)[C@H](Oc3ccccc3)C[C@@H]3CC[C@@H](C)[C@@](O)(O3)C(=O)C(=O)N3CCCC[C@H]3C(=O)O2)CC[C@H]1O [28-epi-7R-phenyloxy]
IC50 (FKBP; read-out: FKBP IC50): 19 nM
EC50 [1, 2]: 9 nM
TXN 2098L peak relative to rapamycin peak ([1]; superscript mark on EC50 cell): (−) (peak was <80% rapamycin peak)
IC50 (murine splenocyte; Mus musculus, Splenocyte): 200 to 1950 nM
